Reference: the supplement of paper PMC4858399
Counter-ions that a name gives are not always drawn.

Experiments:
Conditions in all cases: exposure time 48 h
[1] = tested on: Caenorhabditis elegans N2; assay: mean nematode size ln(EXT) after 48 h, plate-adjusted (DMSO control set to 6) (ln(EXT), control-adjusted); higher = larger nematodes / less growth inhibition
Outline: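 A growth model removed debris from Biosort extinction readings taken on each worm. These worms were synchronised C. elegans N2 L1 larvae, 50 per well in 4–6 wells per treatment, grown for 48 h at 20°C in K-medium with killed OP50, 1% DMSO and 0.5–200 µM chemical. Readings were natural-logged and averaged by well to give mean size. On each plate, the vehicle control mean was subtracted and 6 was added.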

[2] = tested on: Caenorhabditis elegans N2; assay: lowest effective concentration for larval growth inhibition (size below effect threshold); higher = less potent
Outline: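 Worm size was taken as per-worm extinction on the Biosort, log-transformed and turned into well means. The larvae (C. elegans N2, L1 stage, 50 per 96-well) had spent 48 h at 20°C in K-medium with killed bacteria, 1% DMSO and 0.5, 1, 5, 10, 50, 100 or 200 µM chemical. The lowest effective concentration marks the first dose where the plate-adjusted mean size drops under a cutoff and remains under it at every higher dose; the cutoff is 5.665.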

[3] = tested on: Caenorhabditis elegans N2; assay: AC50 for larval growth inhibition (Hill fit); higher = less potent
Outline: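 AC50 values come from a constrained Hill fit by weighted genetic-algorithm regression and are censored when out of range. The fit used only wells with at least 10 worms. Each well of a 96-well plate held 50 synchronised C. elegans N2 L1 larvae in K-medium with killed OP50, 1% DMSO and 0.5–200 µM chemical for 48 h at 20°C. A COPAS Biosort recorded each worm's size as extinction, which was log-transformed and averaged per well.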

Row | SMILES | mean nematode size ln(EXT) (ln) ([1]; 0.5 µM) | mean nematode size ln(EXT) (ln) ([1]; 1 µM) | mean nematode size ln(EXT) (ln) ([1]; 5 µM) | mean nematode size ln(EXT) (ln) ([1]; 10 µM) | mean nematode size ln(EXT) (ln) ([1]; 50 µM) | mean nematode size ln(EXT) (ln) ([1]; 100 µM) | mean nematode size ln(EXT) (ln) ([1]; 200 µM) | lowest effective concentration [2] [µM] | AC50 for larval growth inhibition [3] [µM]
1 | CS(=O)(=O)c1cc(C(F)(F)F)ccc1C(=O)c1cnoc1C1CC1 [Isoxaflutole] | 6.11 | 6.29 | 6.22 | 6.31 | 6.07 | 6.15 | 5.61 | 200 | > 200
2 | Cc1cc2c(cc1C(F)(F)F)N(C(=O)Nc1ccc(Oc3cccnc3C)nc1)CC2 | 5.88 | 5.73 | 5.86 | 5.71 | 5.75 | 5.67 | 5.57 | 200 | > 200
3 | CN1CCN(Cc2cc(-c3ccc4[nH]c(=O)oc4c3)co2)[C@@H](c2ccc(F)cc2)C1 | 5.7 | 5.65 | 5.75 | 5.61 | 5.3 | 4.92 | 3.58 | 10 | 114
4 | CC(C)COC(=O)c1ccccc1C(=O)OCC(C)C [Diisobutyl phthalate] | 5.93 | 5.94 | 5.9 | 5.95 | 6.12 | 5.58 | 5.43 | 100 | 96.3
5 | Nc1cc(Cl)cc(C(=O)O)c1Cl [Chloramben] | 5.87 | 5.9 | 5.88 | 5.9 | 5.46 | 5.58 | 5.3 | 50 | > 200
6 | Cc1nn(-c2cc(NS(C)(=O)=O)c(Cl)cc2Cl)c(=O)n1C(F)F [Sulfentrazone] | 5.85 | 5.87 | 5.92 | 5.96 | 6.05 | 5.9 | 5.5 | 200 | 108
7 | CC(C)OC(=O)C(C)(C)Oc1ccc(C(=O)c2ccc(Cl)cc2)cc1 [Fenofibrate] | 5.83 | 5.81 | 5.75 | 5.61 | 5.19 | 4.62 | 4.22 | 10 | 121
8 | CCC(=O)C(CC(C)N(C)C)(c1ccccc1)c1ccccc1 (stereo not drawn) [Methadone Hydrochloride] | 5.87 | 5.81 | 5.87 | 5.88 | 5.7 | 5.81 | 5.54 | 200 | > 200
9 | OCCC(F)(F)C(F)(F)C(F)(F)C(F)(F)C(F)(F)C(F)(F)F [1-Octanol, 3,3,4,4,5,5,6,6,7,7,8,8,8-tridecafluoro-] | 5.87 | 5.92 | 5.88 | 5.94 | 5.91 | 5.77 | 5.65 | 200 | > 200
10 | COc1ccc(C(=CC(=O)N2CCOCC2)c2ccc(Cl)cc2)cc1OC [Dimethomorph] | 6 | 5.98 | 6.05 | 6.03 | 5.92 | 5.54 | 4.95 | 100 | 117
11 | O=C(O)C1(c2ccc3c(c2)OC[C@H](Cc2ccc(-c4ccccc4)cc2)[C@H]3O)CCCC1 | 5.91 | 5.83 | 5.77 | 5.9 | 5.16 | 4.25 | 4.18 | 50 | 52.8
12 | Nc1ccc(Nc2ccccc2)cc1 [N-Phenyl-1,4-benzenediamine] | 5.84 | 5.84 | 5.76 | 5.72 | 5.43 | 5.15 | 5.25 | 50 | 71.8
13 | CC(C)(c1ccccc1)c1ccc(O)c(C(C)(C)c2ccccc2)c1 [2,4-Bis(alpha,alpha-dimethylbenzyl)phenol] | 6 | 5.67 | 5.74 | 5.45 | 4.67 | 4.3 | 3.8 | 10 | 58.7
14 | COc1ccc(OC(F)(F)F)cc1CN[C@H]1CCCN[C@H]1c1ccccc1 | 6.04 | 5.82 | 5.68 | 5.67 | 5.39 | 4.71 | 4.55 | 50 | 185
15 | C#CCOC(=O)[C@@H](C)Oc1ccc(Oc2ncc(Cl)cc2F)cc1 [Clodinafop-propargyl] | 5.98 | 5.9 | 6.05 | 5.94 | 6.15 | 5.84 | 5.14 | 200 | 106
16 | CCCCOC(=O)c1ccccc1C(=O)OCCCC [Dibutyl phthalate] | 6.09 | 6.09 | 5.61 | 5.99 | 4.67 | 5.62 | 5.42 | 50 | 20.9
17 | CC(=O)N1CCN(c2ccc(OCC3COC(Cn4ccnc4)(c4ccc(Cl)cc4Cl)O3)cc2)CC1 (stereo not drawn) [Ketoconazole] | 6 | 5.74 | 5.8 | 5.62 | 5.3 | 4.28 | 3.53 | 10 | 85.2
18 | Cc1cc(C2CC2)nc(Nc2ccccc2)n1 [Cyprodinil] | 5.93 | 5.88 | 5.96 | 5.86 | 5.32 | 5.01 | 4 | 50 | 132
19 | ClC1=C(Cl)[C@]2(Cl)[C@@H]3[C@@H]4C[C@@H]([C@H]5O[C@@H]45)[C@@H]3[C@@]1(Cl)C2(Cl)Cl [Dieldrin] | 5.78 | 5.82 | 5.39 | 5.26 | 5.12 | 5.07 | 4.21 | 5 | 171
20 | NS(=O)(=O)C(F)(F)C(F)(F)C(F)(F)C(F)(F)C(F)(F)C(F)(F)C(F)(F)C(F)(F)F [Perfluorooctanesulfonamide] | 5.89 | 5.86 | 5.26 | 4.64 | 3.6 | 3.86 | 3.65 | 5 | 7.84
21 | CCOP(=S)(OCC)Oc1ccc([N+](=O)[O-])cc1 [Parathion] | 5.59 | 5.66 | 5.54 | 5.03 | 3.46 | 3.63 | 3.36 | ≤ 0.5 | 13.4
22 | CCOP(=S)(OCC)Oc1nc(Cl)n(C(C)C)n1 [Isazofos] | 4.88 | 5.05 | 4.5 | 4.43 | 3.8 | 3.59 | 3.78 | ≤ 0.5 | 3.38
